Reference: publication PMC5218480 (PLoS ONE, 2017)

Tested on: MV-4-11 cells
Experiment: Gene expression microarray analysis (Affymetrix PrimeView) and GSEA
Format: cell-based, human
Design: RFU PODN (11730768_x_at) / Fold change /veh PODN (11730768_x_at) / RFU LINC00158 (11744669_a_at) / Fold change /veh LINC00158 (11744669_a_at) / RFU DUSP10 (11751237_a_at) / Fold change /veh DUSP10 (11751237_a_at) / RFU ID3 (11757404_x_at) / Fold change /veh ID3 (11757404_x_at) / RFU PLEKHG5 (11737974_s_at) / Fold change /veh PLEKHG5 (11737974_s_at) / RFU LRRC4B (11730491_at) / Fold change /veh LRRC4B (11730491_at) / RFU GIMAP4 (11747438_a_at) / Fold change /veh GIMAP4 (11747438_a_at) / RFU KRT8 (11758183_x_at) / Fold change /veh KRT8 (11758183_x_at) / RFU CNN1 (11734310_a_at) / Fold change /veh CNN1 (11734310_a_at) / RFU VPS37D (11726825_at) / Fold change /veh VPS37D (11726825_at) / RFU C10orf10 (11716522_x_at) / Fold change /veh C10orf10 (11716522_x_at) / RFU KIR2DL2 /// KIR2DL4 /// KIR2DL5A /// KIR2DL5B /// KIR2DS1 /// KIR2DS2 /// KIR2DS3 /// KIR2DS4 /// KIR3DL3 /// KIR3DL3 /// KIR3DS1 (11738374_at) / Fold change /veh KIR2DL2 /// KIR2DL4 /// KIR2DL5A /// KIR2DL5B /// KIR2DS1 /// KIR2DS2 /// KIR2DS3 /// KIR2DS4 /// KIR3DL3 /// KIR3DL3 /// KIR3DS1 (11738374_at) / RFU C1QL1 (11718748_at) / Fold change /veh C1QL1 (11718748_at) / RFU TMPRSS4 (11747572_a_at) / Fold change /veh TMPRSS4 (11747572_a_at) / RFU HAMP (11756126_x_at) / Fold change /veh HAMP (11756126_x_at) / RFU RNFT2 (11725882_a_at) / Fold change /veh RNFT2 (11725882_a_at) / RFU NR4A2 (11747474_a_at) / Fold change /veh NR4A2 (11747474_a_at) / RFU ABCC12 (11746883_a_at) / Fold change /veh ABCC12 (11746883_a_at) / RFU TMEM136 (11760407_x_at) / Fold change /veh TMEM136 (11760407_x_at) / RFU CLDN22 /// WWC2 (11732394_at) / Fold change /veh CLDN22 /// WWC2 (11732394_at) / RFU HLA-DPB1 (11760878_x_at) / Fold change /veh HLA-DPB1 (11760878_x_at) / RFU SPINT1 (11716480_a_at) / Fold change /veh SPINT1 (11716480_a_at) / RFU GAP43 (11754022_s_at) / Fold change /veh GAP43 (11754022_s_at) / RFU A4GNT (11735810_at) / Fold change /veh A4GNT (11735810_at) / RFU PRB3 (11715151_x_at) / Fold change /veh PRB3 (11715151_x_at) / RFU TUBB4B (11761932_at) / Fold change /veh TUBB4B (11761932_at) / RFU CAPN14 (11732068_a_at) / Fold change /veh CAPN14 (11732068_a_at) / RFU TMCC2 (11721928_a_at) / Fold change /veh TMCC2 (11721928_a_at) / RFU IRGQ (11745062_a_at) / Fold change /veh IRGQ (11745062_a_at) / RFU FAM174B (11720279_a_at) / Fold change /veh FAM174B (11720279_a_at) / RFU TMPRSS4 (11748680_a_at) / Fold change /veh TMPRSS4 (11748680_a_at) / RFU FAM212B (11763350_a_at) / Fold change /veh FAM212B (11763350_a_at) / RFU PLEKHG5 (11743358_a_at) / Fold change /veh PLEKHG5 (11743358_a_at) / RFU ZSCAN30 (11745921_a_at) / Fold change /veh ZSCAN30 (11745921_a_at) / RFU CMKLR1 (11741424_a_at) / Fold change /veh CMKLR1 (11741424_a_at) / RFU LOC101060620 /// MAPK8IP1 (11723275_at) / Fold change /veh LOC101060620 /// MAPK8IP1 (11723275_at) / RFU SPTSSB (11747773_x_at) / Fold change /veh SPTSSB (11747773_x_at) / RFU PRSS12 (11739890_at) / Fold change /veh PRSS12 (11739890_at) / RFU BIN1 (11741810_x_at) / Fold change /veh BIN1 (11741810_x_at) / RFU WNT11 (11732464_a_at) / Fold change /veh WNT11 (11732464_a_at) / RFU C10orf10 (11716521_a_at) / Fold change /veh C10orf10 (11716521_a_at) / RFU C5orf56 (11738089_at) / Fold change /veh C5orf56 (11738089_at) / RFU CYB561 (11721691_x_at) / Fold change /veh CYB561 (11721691_x_at) / RFU ANKRD19P (11752326_a_at) / Fold change /veh ANKRD19P (11752326_a_at) / RFU OR2T12 /// OR2T33 /// OR2T8 (11738714_s_at) / Fold change /veh OR2T12 /// OR2T33 /// OR2T8 (11738714_s_at) / RFU VCAN (11748164_a_at) / Fold change /veh VCAN (11748164_a_at) / RFU JSRP1 (11732532_at) / Fold change /veh JSRP1 (11732532_at) / RFU KRTAP10-11 (11738290_x_at) / Fold change /veh KRTAP10-11 (11738290_x_at) / RFU MYO3A (11730013_a_at) / Fold change /veh MYO3A (11730013_a_at) / RFU EBF3 (11725865_a_at) / Fold change /veh EBF3 (11725865_a_at) / RFU CAMK2N1 (11719241_x_at) / Fold change /veh CAMK2N1 (11719241_x_at) / RFU C5orf56 (11738088_a_at) / Fold change /veh C5orf56 (11738088_a_at) / RFU OLFML3 (11715873_a_at) / Fold change /veh OLFML3 (11715873_a_at) / RFU LOC100653217 /// NTM (11731650_a_at) / Fold change /veh LOC100653217 /// NTM (11731650_a_at) / RFU MAPK11 (11762145_a_at) / Fold change /veh MAPK11 (11762145_a_at) / RFU FIZ1 (11724087_x_at) / Fold change /veh FIZ1 (11724087_x_at) / RFU OASL (11726364_x_at) / Fold change /veh OASL (11726364_x_at) / RFU SOX15 (11748057_x_at) / Fold change /veh SOX15 (11748057_x_at) / RFU CD79A (11719716_a_at) / Fold change /veh CD79A (11719716_a_at) / RFU HIST1H1D (11736915_at) / Fold change /veh HIST1H1D (11736915_at) / RFU CASKIN2 (11723855_a_at) / Fold change /veh CASKIN2 (11723855_a_at) / RFU LOC730098 (11760151_x_at) / Fold change /veh LOC730098 (11760151_x_at) / RFU OR4N2 (11742367_at) / Fold change /veh OR4N2 (11742367_at) / RFU PRRT2 (11749266_a_at) / Fold change /veh PRRT2 (11749266_a_at) / RFU SNX32 (11753110_a_at) / Fold change /veh SNX32 (11753110_a_at) / RFU CDHR5 (11726645_a_at) / Fold change /veh CDHR5 (11726645_a_at) / RFU RCAN1 (11760418_a_at) / Fold change /veh RCAN1 (11760418_a_at) / RFU FAM167A (11723789_a_at) / Fold change /veh FAM167A (11723789_a_at) / RFU FAM26E (11764081_at) / Fold change /veh FAM26E (11764081_at) / RFU ISYNA1 (11749810_s_at) / Fold change /veh ISYNA1 (11749810_s_at) / RFU ACY1 (11761880_at) / Fold change /veh ACY1 (11761880_at) / RFU 11764098_at / Fold change /veh 11764098_at / RFU SAMD14 (11745864_x_at) / Fold change /veh SAMD14 (11745864_x_at) / RFU NPB (11741838_a_at) / Fold change /veh NPB (11741838_a_at) / RFU TMPRSS6 (11731388_a_at) / Fold change /veh TMPRSS6 (11731388_a_at) / RFU KRTAP10-2 (11738614_at) / Fold change /veh KRTAP10-2 (11738614_at) / RFU ARHGAP8 /// PRR5-ARHGAP8 (11727945_x_at) / Fold change /veh ARHGAP8 /// PRR5-ARHGAP8 (11727945_x_at) / RFU KRTAP5-7 /// NADSYN1 (11734609_at) / Fold change /veh KRTAP5-7 /// NADSYN1 (11734609_at) / RFU RASL12 (11751679_a_at) / Fold change /veh RASL12 (11751679_a_at) / RFU CDKN2B (11736163_a_at) / Fold change /veh CDKN2B (11736163_a_at) / RFU PRF1 (11729649_at) / Fold change /veh PRF1 (11729649_at) / RFU, ZNF638 /// ZNF638-IT1 / Fold change vs veh, ZNF638 /// ZNF638-IT1 / RFU, PANK3 / Fold change vs veh, PANK3 / RFU, SH3YL1 / Fold change vs veh, SH3YL1 / RFU, ZEB2 / Fold change vs veh, ZEB2 / RFU, NRIP1 / Fold change vs veh, NRIP1 / RFU, PTTG1IP / Fold change vs veh, PTTG1IP / RFU, CAPN2 / Fold change vs veh, CAPN2 / RFU, MED14 / Fold change vs veh, MED14 / RFU, SNORA58 / Fold change vs veh, SNORA58 / RFU, C1orf63 / Fold change vs veh, C1orf63 / RFU, LRRFIP1 / Fold change vs veh, LRRFIP1 / RFU, NDUFAF7 / Fold change vs veh, NDUFAF7 / RFU, SLC12A2 / Fold change vs veh, SLC12A2 / RFU, IBTK / Fold change vs veh, IBTK / RFU, ESF1 / Fold change vs veh, ESF1 / Fold change vs veh, TMEM50B / RFU, TAOK1 / Fold change vs veh, TAOK1 / RFU, ACBD3 / Fold change vs veh, ACBD3 / RFU, TMA16 / Fold change vs veh, TMA16 / RFU, RWDD3 / Fold change vs veh, RWDD3 / RFU, BCAT1 / Fold change vs veh, BCAT1 / RFU, EDEM3 / Fold change vs veh, EDEM3 / RFU, TMEM33 / Fold change vs veh, TMEM33 / RFU, WDR75 / Fold change vs veh, WDR75 / RFU, AHCTF1 / Fold change vs veh, AHCTF1 / RFU, TFRC / Fold change vs veh, TFRC / RFU, ZDHHC17 / Fold change vs veh, ZDHHC17 / RFU, NOM1 / Fold change vs veh, NOM1 / RFU, ARL8B / Fold change vs veh, ARL8B / RFU, ZBTB11 / Fold change vs veh, ZBTB11 / RFU, TAMM41 / Fold change vs veh, TAMM41 / RFU, KIAA1704 /// LOC100996395 / Fold change vs veh, KIAA1704 /// LOC100996395 / RFU, ING1 / Fold change vs veh, ING1 / RFU, TRMT61B / Fold change vs veh, TRMT61B / RFU, FUBP3 / Fold change vs veh, FUBP3 / RFU, TP53 / Fold change vs veh, TP53 / RFU, TNKS2 / Fold change vs veh, TNKS2 / RFU, ZFP14 / Fold change vs veh, ZFP14 / RFU, ACTR2 / Fold change vs veh, ACTR2 / RFU, PPP3R1 / Fold change vs veh, PPP3R1 / RFU, PIK3R1 / Fold change vs veh, PIK3R1 / RFU, HNRNPA1 / Fold change vs veh, HNRNPA1 / RFU, RNF170 / Fold change vs veh, RNF170 / RFU, ZNF28 / Fold change vs veh, ZNF28 / RFU, RNGTT / Fold change vs veh, RNGTT / RFU, OGT / Fold change vs veh, OGT / RFU, BRD1 / Fold change vs veh, BRD1 / RFU, MARS / Fold change vs veh, MARS / RFU, ZNF655 / Fold change vs veh, ZNF655 / RFU, FAHD1 / Fold change vs veh, FAHD1 / RFU, BDP1 / Fold change vs veh, BDP1 / RFU, LRRCC1 / Fold change vs veh, LRRCC1 / RFU, ARID1A / Fold change vs veh, ARID1A / RFU, ZNF146 / Fold change vs veh, ZNF146 / RFU, ZNF330 / Fold change vs veh, ZNF330 / RFU, GPN3 / Fold change vs veh, GPN3 / RFU, C9orf123 / Fold change vs veh, C9orf123 / RFU, N4BP2L2 / Fold change vs veh, N4BP2L2 / RFU, ARFIP1 / Fold change vs veh, ARFIP1 / RFU, FAM179B / Fold change vs veh, FAM179B / RFU, BCL10 / Fold change vs veh, BCL10 / RFU, UHRF1BP1L / Fold change vs veh, UHRF1BP1L / RFU, BET1 / Fold change vs veh, BET1 / RFU, CNOT2 / Fold change vs veh, CNOT2 / RFU, ZNF268 / Fold change vs veh, ZNF268 / Fold change vs veh, ZNF507 / RFU, DGCR2 / Fold change vs veh, DGCR2 / RFU, WDSUB1 / Fold change vs veh, WDSUB1 / Fold change vs veh, HSP90B1 /// MIR3652 / RFU, ADSS / Fold change vs veh, ADSS / RFU, GK / Fold change vs veh, GK / RFU, ZNF148 / Fold change vs veh, ZNF148 / RFU, TAF9 / Fold change vs veh, TAF9 / RFU, SLC1A5 / Fold change vs veh, SLC1A5 / RFU, SLMO2 / Fold change vs veh, SLMO2 / RFU, ABCC4 / Fold change vs veh, ABCC4 / RFU, LOC101060439 /// RAP1B / Fold change vs veh, LOC101060439 /// RAP1B / RFU, RFX7 / Fold change vs veh, RFX7 / RFU, GTPBP10 / Fold change vs veh, GTPBP10 / RFU, CNEP1R1 / Fold change vs veh, CNEP1R1 / RFU, BIVM-ERCC5 /// ERCC5 / Fold change vs veh, BIVM-ERCC5 /// ERCC5 / RFU, ILF3 / Fold change vs veh, ILF3 / RFU 11762660_at / Fold change /veh 11762660_at / RFU VCAN (11757783_s_at) / Fold change /veh VCAN (11757783_s_at) / RFU DDX43 (11728927_at) / Fold change /veh DDX43 (11728927_at) / RFU KRT8 (11758188_x_at) / Fold change /veh KRT8 (11758188_x_at) / RFU NKD1 (11759106_at) / Fold change /veh NKD1 (11759106_at) / RFU SRD5A1 (11742802_a_at) / Fold change /veh SRD5A1 (11742802_a_at) / RFU TPSAB1 /// TPSB2 (11721975_s_at) / Fold change /veh TPSAB1 /// TPSB2 (11721975_s_at) / RFU GSTM3 (11746129_a_at) / Fold change /veh GSTM3 (11746129_a_at) / RFU IL23R (11737362_x_at) / Fold change /veh IL23R (11737362_x_at) / RFU TMEM51 (11727254_a_at) / Fold change /veh TMEM51 (11727254_a_at) / RFU PIWIL2 (11732686_x_at) / Fold change /veh PIWIL2 (11732686_x_at) / RFU ORM1 (11744905_x_at) / Fold change /veh ORM1 (11744905_x_at) / RFU CCDC152 (11743942_at) / Fold change /veh CCDC152 (11743942_at) / RFU ECM1 (11717891_a_at) / Fold change /veh ECM1 (11717891_a_at) / RFU IL23R (11748794_a_at) / Fold change /veh IL23R (11748794_a_at) / RFU TNFAIP8L3 (11732012_x_at) / Fold change /veh TNFAIP8L3 (11732012_x_at) / RFU MBOAT4 (11741988_at) / Fold change /veh MBOAT4 (11741988_at) / RFU 11764193_at / Fold change /veh 11764193_at / RFU TMEM53 (11763286_at) / Fold change /veh TMEM53 (11763286_at) / RFU MAGEB2 (11727129_at) / Fold change /veh MAGEB2 (11727129_at) / RFU TMEM200A (11744735_a_at) / Fold change /veh TMEM200A (11744735_a_at) / RFU CCDC152 (11751479_a_at) / Fold change /veh CCDC152 (11751479_a_at) / RFU FAM211A (11726209_a_at) / Fold change /veh FAM211A (11726209_a_at) / RFU RGS16 (11746705_a_at) / Fold change /veh RGS16 (11746705_a_at) / RFU VCAN (11755009_s_at) / Fold change /veh VCAN (11755009_s_at) / RFU RHOB (11743442_s_at) / Fold change /veh RHOB (11743442_s_at) / RFU RGS16 (11720943_a_at) / Fold change /veh RGS16 (11720943_a_at) / RFU RGS16 (11720944_at) / Fold change /veh RGS16 (11720944_at) / RFU, VPS4B / Fold change vs veh, VPS4B / RFU, CREB1 / Fold change vs veh, CREB1 / RFU, DNAJC13 / Fold change vs veh, DNAJC13 / RFU, GNAQ / Fold change vs veh, GNAQ / RFU, CDK5R1 / Fold change vs veh, CDK5R1 / RFU, ZRANB3 / Fold change vs veh, ZRANB3 / RFU, CUL4A / Fold change vs veh, CUL4A / RFU, CCNY / Fold change vs veh, CCNY / RFU, UFL1 / Fold change vs veh, UFL1 / RFU, COG3 / Fold change vs veh, COG3 / RFU, DIAPH2 / Fold change vs veh, DIAPH2 / RFU, SKA2 / Fold change vs veh, SKA2 / RFU, AFF3 / Fold change vs veh, AFF3 / RFU, LMF1 / Fold change vs veh, LMF1 / RFU, IPO11 / Fold change vs veh, IPO11 / RFU, DFFB / Fold change vs veh, DFFB / RFU, FOXP1 / Fold change vs veh, FOXP1 / RFU, CARD8 / Fold change vs veh, CARD8 / RFU, STRN3 / Fold change vs veh, STRN3 / RFU, ADK / Fold change vs veh, ADK / RFU, RASSF2 / Fold change vs veh, RASSF2 / RFU, WIPF1 / Fold change vs veh, WIPF1 / RFU, LARP1B / Fold change vs veh, LARP1B / RFU, RASA1 / Fold change vs veh, RASA1 / RFU, RB1 / Fold change vs veh, RB1 / RFU, PPFIA1 / Fold change vs veh, PPFIA1 / RFU, MAT2A / Fold change vs veh, MAT2A / RFU, CCT5 / Fold change vs veh, CCT5 / RFU, WDR92 / Fold change vs veh, WDR92 / RFU, CUX1 / Fold change vs veh, CUX1 / RFU, TTC7A / Fold change vs veh, TTC7A / RFU, TMEM135 / Fold change vs veh, TMEM135 / RFU, DEPTOR / Fold change vs veh, DEPTOR / RFU, CPM / Fold change vs veh, CPM / RFU, DNAJB6 / Fold change vs veh, DNAJB6 / RFU, CACNA2D3 / Fold change vs veh, CACNA2D3 / RFU, DTX4 / Fold change vs veh, DTX4 / RFU, TFCP2 / Fold change vs veh, TFCP2 / RFU, GMCL1 /// GMCL1P1 / Fold change vs veh, GMCL1 /// GMCL1P1 / RFU, AEBP2 / Fold change vs veh, AEBP2 / RFU, SNHG1 /// SNORD22 /// SNORD25 /// SNORD26 /// SNORD27 /// SNORD28 /// SNORD29 /// SNORD31 / Fold change vs veh, SNHG1 /// SNORD22 /// SNORD25 /// SNORD26 /// SNORD27 /// SNORD28 /// SNORD29 /// SNORD31 / Fold change (Aza/veh), C12orf56 (ProbeSet 11735607_a_at) / Fold change (ACY-1035/veh), C12orf56 (ProbeSet 11735607_a_at) / Fold change (Aza/veh), FGFR1OP (ProbeSet 11751329_s_at) / Fold change (ACY-1035/veh), FGFR1OP (ProbeSet 11751329_s_at) / Fold change (Aza/veh), VPS36 (ProbeSet 11739960_a_at) / Fold change (ACY-1035/veh), VPS36 (ProbeSet 11739960_a_at) / RFU SYPL1 (11715823_x_at) / Fold change /veh SYPL1 (11715823_x_at) / RFU IGFBP7 (11715501_s_at) / Fold change /veh IGFBP7 (11715501_s_at) / RFU REEP3 (11722064_at) / Fold change /veh REEP3 (11722064_at) / RFU IGLL1 (11728026_x_at) / Fold change /veh IGLL1 (11728026_x_at): dose or concentration left out as unconfirmed
Settings: MV-4-11 cells, 48 hours

Structure (SMILES): Nc1ncn([C@@H]2O[C@H](CO)[C@@H](O)[C@H]2O)c(=O)n1 [azacitidine]
- RFU VCAN (11757783_s_at): 10.94 RFU
